The compounds below were run against T1, 25-hydroxyvitamin D-1 alpha hydroxylase, mitochondrial (Homo sapiens, UniProt O15528) (assay: Inhibition of human CYP27B hydroxylase expressed in SW900 cells). Conditions: not given.
T1 sequence (O15528 whole entry): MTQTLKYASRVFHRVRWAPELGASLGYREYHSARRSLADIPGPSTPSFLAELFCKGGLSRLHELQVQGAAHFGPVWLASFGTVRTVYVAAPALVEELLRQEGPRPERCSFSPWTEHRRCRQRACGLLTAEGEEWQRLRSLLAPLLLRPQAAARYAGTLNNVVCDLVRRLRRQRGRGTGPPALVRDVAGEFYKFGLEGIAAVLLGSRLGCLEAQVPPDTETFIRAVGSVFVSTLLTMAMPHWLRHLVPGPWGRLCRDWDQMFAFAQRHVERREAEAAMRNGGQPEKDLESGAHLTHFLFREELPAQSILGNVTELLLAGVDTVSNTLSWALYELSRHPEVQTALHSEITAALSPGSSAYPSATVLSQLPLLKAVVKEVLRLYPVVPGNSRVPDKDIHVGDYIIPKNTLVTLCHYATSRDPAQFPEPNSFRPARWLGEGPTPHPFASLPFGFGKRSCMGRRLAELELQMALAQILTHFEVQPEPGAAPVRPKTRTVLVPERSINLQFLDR
Format: cell-based
In the case of `C=C1/C(=C\C=C2/CCC[C@]3(C)[C@@H]([C@H](C)CCS(=N)(=O)c4ccccc4)CC[C@@H]23)C[C@@H](O)C[C@@H]1O` (stereo in doubt; 3a) [listing 1 of 2 here], the IC50 is reported as 554 nM.

The compounds below were run against T2, 1,25-dihydroxyvitamin D(3) 24-hydroxylase, mitochondrial (Homo sapiens, UniProt Q07973) (assay: Inhibition of human CYP24 hydroxylase expressed in V79 cells). Conditions: not given.
T2 sequence (Q07973 whole entry): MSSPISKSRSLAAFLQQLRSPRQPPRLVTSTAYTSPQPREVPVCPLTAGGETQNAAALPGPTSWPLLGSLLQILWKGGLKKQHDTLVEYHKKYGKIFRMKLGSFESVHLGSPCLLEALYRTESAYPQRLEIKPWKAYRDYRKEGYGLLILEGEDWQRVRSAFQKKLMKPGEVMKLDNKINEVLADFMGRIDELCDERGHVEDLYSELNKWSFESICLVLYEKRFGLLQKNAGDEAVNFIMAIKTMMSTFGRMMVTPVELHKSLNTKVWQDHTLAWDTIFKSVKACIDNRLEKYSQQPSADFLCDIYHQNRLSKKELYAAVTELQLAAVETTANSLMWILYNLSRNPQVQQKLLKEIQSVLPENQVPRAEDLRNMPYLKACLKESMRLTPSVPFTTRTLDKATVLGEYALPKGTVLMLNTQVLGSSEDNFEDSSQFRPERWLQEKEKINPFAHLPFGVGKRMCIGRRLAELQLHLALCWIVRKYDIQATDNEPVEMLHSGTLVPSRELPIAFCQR
Format: cell-based
In the case of `C=C1CC[C@H](O)C/C1=C/C=C1\CCC[C@]2(C)[C@@H]([C@H](C)CC[S+](=N)([O-])c3ccccc3)CC[C@@H]12` (stereo partly drawn), the IC50 is reported as 75 nM.
With `C=C1/C(=C\C=C2/CCC[C@]3(C)[C@@H]([C@@H](C)/C=C/[S+](=N)([O-])c4ccccc4)CC[C@@H]23)C[C@@H](O)C[C@@H]1O` (stereo partly drawn) the IC50 was 549 nM.
`C=C1/C(=C\C=C2/CCC[C@]3(C)[C@@H]([C@H](C)/C=C(\F)[S+](=N)([O-])c4ccccc4)CC[C@@H]23)C[C@@H](O)C[C@@H]1O` (stereo partly drawn) gave an IC50 of over 1000 nM.
`C=C1/C(=C\C=C2/CCC[C@]3(C)[C@@H]([C@H](C)/C=C/[S+](=N)([O-])c4ccccc4)CC[C@@H]23)C[C@@H](O)C[C@@H]1O` (stereo partly drawn) was tested, and the IC50 was over 1000 nM.
`C=C1/C(=C\C=C2/CCC[C@]3(C)[C@@H]([C@H](C)CCS(=N)(=O)c4ccccc4)CC[C@@H]23)C[C@@H](O)C[C@@H]1O` (stereo in doubt; 3a) [listing 1 of 2 here] showed an IC50 of 7.4 nM.
For `C[C@H](CC[S+](=N)([O-])c1ccccc1)[C@H]1CC[C@H]2/C(=C/C=C3C[C@@H](O)C[C@H](O)C3)CCC[C@]12C` (stereo in doubt; 3c), the IC50 was 13 nM.
Work on `C[C@H](CC[S+](=N)([O-])c1ccccc1)[C@H]1CC[C@H]2/C(=C/C=C3C[C@@H](O)C[C@H](O)C3)CCC[C@]12C` (stereo in doubt; 3d) yielded an IC50 of 9.7 nM.
`C=C1/C(=C\C=C2/CCC[C@]3(C)[C@@H]([C@H](C)CC4([S+](=N)([O-])c5ccccc5)CC4)CC[C@@H]23)C[C@@H](O)C[C@@H]1O` (stereo in doubt; 3f) was tested, and the IC50 was 20.5 nM.
`C=C1/C(=C\C=C2/CCC[C@]3(C)[C@@H]([C@H](C)CC4([S+](=N)([O-])c5ccccc5)CC4)CC[C@@H]23)C[C@@H](O)C[C@@H]1O` (stereo in doubt; 3g) was tested, and the IC50 was 50 nM.
`C=C1/C(=C\C=C2/CCC[C@]3(C)[C@@H]([C@H](C)CC[S+](=N)([O-])c4ccc(F)cc4)CC[C@@H]23)C[C@@H](O)C[C@@H]1O` (stereo in doubt; 3i) was tested, and the IC50 was 44 nM.

The compounds below were run against T3, Vitamin D3 receptor (Homo sapiens) (UniProt P11473). Conditions: CV-1.
T3 sequence (whole entry): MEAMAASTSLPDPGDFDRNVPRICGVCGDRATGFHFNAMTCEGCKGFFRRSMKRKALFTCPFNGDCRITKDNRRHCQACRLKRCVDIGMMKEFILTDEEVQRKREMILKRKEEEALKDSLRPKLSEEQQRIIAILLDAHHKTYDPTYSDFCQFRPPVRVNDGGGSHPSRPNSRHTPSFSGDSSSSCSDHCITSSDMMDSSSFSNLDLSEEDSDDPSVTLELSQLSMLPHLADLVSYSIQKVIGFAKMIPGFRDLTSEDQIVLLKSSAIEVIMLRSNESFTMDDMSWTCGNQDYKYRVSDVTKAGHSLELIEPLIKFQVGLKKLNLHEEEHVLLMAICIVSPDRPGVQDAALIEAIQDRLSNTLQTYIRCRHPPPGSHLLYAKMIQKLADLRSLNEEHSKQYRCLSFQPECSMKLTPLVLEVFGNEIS
Description: Effect on VDR-mediated transcriptional activity in CV1 cells transfected with human recombinant VDR
Work on `C=C1/C(=C\C=C2/CCC[C@]3(C)[C@@H]([C@H](C)CCS(=N)(=O)c4ccccc4)CC[C@@H]23)C[C@@H](O)C[C@@H]1O` (stereo in doubt; 3a) [listing 2 of 2 here] yielded an ED50 of over 1000 nM.
`C=C1/C(=C\C=C2/CCC[C@]3(C)[C@@H]([C@H](C)CCS(=N)(=O)c4ccccc4)CC[C@@H]23)C[C@@H](O)C[C@@H]1O` (stereo in doubt; 3b) showed an ED50 of over 1000 nM.
